Data taken from publication PMC8122790, “Chemical Constituents of Cassia abbreviata and Their Anti-HIV-1 Activity” (Molecules, 2021).
Read-outs that look alike come from different tables or passages of the source.

Columns and labels:
[1] = Cytotoxicity in MT4 cells (MTT); format: cell-based; conditions: for IC50 at 5 days: human
Description: MT4 cells were obtained through the NIH AIDS Reagent Program and cultured in RPMI 1640 (Lonza, Wijchen, the Netherlands) supplemented with 10% heat-inactivated fetal bovine serum (Lonza, the Netherlands) and 2mM L-glutamine (Invitrogen, Gosselies, Belgium). MT-4 cells were incubated with the crude extract of Cassia abbreviatta or the tested compounds alone to assess cytotoxicity, or HIV-1 IIIB alone or a mixture of the tested extract and compounds and HIV-1 IIIB viruses to assess protection against HIV-1 infection. […] Data were normalized to cells without treatment. Values of OD540−OD690 were calculated to determine IC50 values in Prism. The entry inhibitors, enfuvirtide, and AMD3100 (Sigma Aldrich, Liège, Belgium), were used as positive controls.

HIV-1 IIIB = test: microbe, parasite or virus in culture; conditions: read-out: IC50 HIV-1 Infection
Description: The crude extract of Cassia abbreviata and all isolated compounds were assessed for their anti-HIV activity in MT4 cells infected by the reference strain HIV-1 IIIB (Figure 3). […] Enfuvirtide and Plerixafor are entry inhibitors for positive controls.
MT4 cells were obtained through the NIH AIDS Reagent Program and cultured in RPMI 1640 (Lonza, Wijchen, the Netherlands) supplemented with 10% heat-inactivated fetal bovine serum (Lonza, the Netherlands) and 2mM L-glutamine (Invitrogen, Gosselies, Belgium). MT-4 cells were incubated with the crude extract of Cassia abbreviatta or the tested compounds alone to assess cytotoxicity, or HIV-1 IIIB alone or a mixture of the tested extract and compounds and HIV-1 IIIB viruses to assess protection against HIV-1 infection. After five days, protection from viral infection and the cytotoxicity were evaluated in parallel using (3-(4,5-dimethylthiazol-2-yl)-2,5-diphenyltetrazolium bromide (MTT, Sigma, Liège, Belgium) by measuring OD540 and OD690 using a POLARstar Omega Plate Reader (BMG Labtech, Ortenberg, Germany). Data were normalized to cells without treatment. Values of OD540−OD690 were calculated to determine IC50 values in Prism. The entry inhibitors, enfuvirtide, and AMD3100 (Sigma Aldrich, Liège, Belgium), were used as positive controls.

[2] = Human immunodeficiency virus 1, IIIB, MT4, 120 h
[3] = MT4 cells incubated with compound alone, five days, MTT, read-out: IC50 Cytotoxicity

Row | Compound | IC50 at 5 days [1] | IC50 (HIV-1 IIIB; [2]) | IC50 at 5 days [1, 3] | IC50 (HIV-1 IIIB; MT4 cells infected by reference strain HIV-1 IIIB, five days, MTT, mean ± SD, three experiments) | IC50 ([1]; MT4 cells incubated with compound alone, five days, MTT)
1 | CC12OC(=O)CC1C1Oc3c(c(O)cc(O)c3C3c4ccc(O)cc4OC(c4ccc(O)cc4)C3O)CC1O2 (stereo not drawn) [Cassiabrevone (1), guibourtinidol (4α→8) planchol A] | > 333 µM | 11.9 ± 2.14 µM |  |  | 
2 | Oc1ccc([C@H]2Oc3cc(O)ccc3[C@@H](c3c(O)cc(O)c4c3O[C@H](c3ccc(O)cc3)[C@H](O)C4)[C@@H]2O)cc1 [Guibourtinidol-(4α→8)-epiafzelechin (4), guibourtinidol-(4α→8)-epiafzelechin] | > 333 µM | 15.4 ± 9.09 µM |  |  | 
3 | CC1(C)CC[C@]2(C(=O)O)CC[C@]3(C)C(=CC[C@@H]4[C@@]5(C)CC[C@H](O)C(C)(C)[C@@H]5CC[C@]43C)[C@@H]2C1 [Oleanolic acid (17), oleanolic acid] |  | 7.95 ± 2.57 µM | > 333 µM |  | 
4 | CCCCCCCCCCCCCCCC(=O)O [Palmitic acid (28), Palmitic acid] | > 333 µM | 16 ± 3.04 µM |  |  | 
5 | Oc1cc(O)cc(/C=C/c2ccc(O)c(O)c2)c1 [Piceatannol (22), piceatannol] | > 333 µM | 3.58 ± 0.27 µM |  |  | 
6 | c1cc(CN2CCCNCCNCCCNCC2)ccc1CN1CCCNCCNCCCNCC1 [Plerixafor (AMD3100), Plerixafor, reference compound] | > 1 µM | 0.075 ± 0.009 µM |  |  | 
7 | O=C1c2c(O)cc(O)cc2OC(c2ccc(O)c(O)c2)C1O (stereo not shown) [Taxifolin (8), taxifolin] |  | 49 ± 5.02 µM | > 333 µM |  | 
8 | Enfuvirtide |  |  |  | 0.0096 ± 0.001 µM | 
9 | enfuvirtide |  |  |  |  | > 1 µM
